Consider ten compounds from ChEMBL document CHEMBL1201862, “PubChem BioAssay data set” (2004).

Test systems include Hs-578T; NCI-H23; SK-OV-3; TK-10; U-251; NCI-H226; HL-60; BT-549; NCI-H522; MCF7; SK-MEL-5; SNB-19; SF-268; COLO 205; RPMI-8226; CCRF-CEM; K562; NCI-H460; UACC-257; HCT-116.
Assay in all cases: growth of human tumour cells (NCI), 48 h

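How tested: cells in 96-well plates exposed to compound for 48 hours at five concentrations. Here, GI50 denotes the concentration required for 50% inhibition of growth.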 Active and inactive are the calls of the source. Rule as the data show it: active = GI50 up to about 1.1 µM and inactive = higher.

For the compound `Cc1ccc(NCCN(C)C)c2c(=O)c3cc(O)ccc3oc12`, the GI50 in the test on Hs-578T is 6.41 µM (inactive); in the test with NCI-H23, 12.6 µM (inactive); with SK-OV-3, 13.4 µM (inactive); in the test on TK-10 it was 14.6 µM (inactive); in the test with U-251, 8.2 µM (inactive); in the test on NCI-H226, 15.8 µM (inactive). Moreover, the GI50 in the test on HL-60 was 2.29 µM (inactive); in the test with BT-549, 16.7 µM (inactive); in the test with NCI-H522 it was 8.15 µM (inactive); with MCF7 it was 5.38 µM (inactive); in the test with SK-MEL-5, 11.6 µM (inactive); in the test with SNB-19, 11.3 µM (inactive). Further, the GI50 in the test on SF-268 was 5.35 µM (inactive); in the test on COLO 205, 10.8 µM (inactive); in the test on RPMI-8226 it was 5.08 µM (inactive); with CCRF-CEM, 2.28 µM (inactive); in the test with K562 it was 4.09 µM (inactive); in the test on NCI-H460, 0.889 µM (active). The GI50 is 18.3 µM (inactive) in the test with UACC-257 and 4.86 µM (inactive) in the test with HCT-116.
Take `OC1CC2CCC(C1)N2CCCN1c2ccccc2Sc2ccc(Cl)cc21` (stereo not given): the GI50 was 2.22 µM (inactive) with Hs-578T; 3.13 µM (inactive) with NCI-H23; 3.37 µM (inactive) with SK-OV-3; 1.66 µM (inactive) in the test with TK-10; 1.87 µM (inactive) with U-251; 5.94 µM (inactive) with NCI-H226. The GI50 in the test on HL-60 was 2.26 µM (inactive); in the test with BT-549, 4.86 µM (inactive); in the test on NCI-H522, 1.99 µM (inactive); in the test with MCF7, 1.59 µM (inactive); with SK-MEL-5, 1.73 µM (inactive); in the test on SNB-19 it was 3.88 µM (inactive). Besides, the GI50 was 2.37 µM (inactive) in the test on SF-268; 1.77 µM (inactive) with COLO 205; 1.87 µM (inactive) in the test with RPMI-8226; 1.94 µM (inactive) with CCRF-CEM; 2.04 µM (inactive) in the test on K562; 1.75 µM (inactive) in the test on NCI-H460. Further, the GI50 in the test with UACC-257 is 1.29 µM (inactive); with HCT-116 it was 1.83 µM (inactive).
Turning to `[N-]=[N+]=NC1C(O)C(CO)OC1n1cnc2c(N)ncnc21` (stereo not given), the GI50 in the test with Hs-578T is > 100 µM (inactive); with NCI-H23 it was 30.5 µM (inactive); in the test with SK-OV-3, 87.5 µM (inactive); in the test with TK-10 it was > 100 µM (inactive); with U-251, > 100 µM (inactive); in the test with NCI-H226, 51.6 µM (inactive). Also, the GI50 in the test with HL-60 is 0.522 µM (active); with BT-549 it was 54.8 µM (inactive); with NCI-H522 it was 65.8 µM (inactive); with MCF7, 5.21 µM (inactive); in the test on SK-MEL-5 it was > 100 µM (inactive); with SNB-19 it was 59.4 µM (inactive). Besides, the GI50 in the test on SF-268 is 51.1 µM (inactive); in the test with COLO 205, > 100 µM (inactive); with RPMI-8226 it was 45.8 µM (inactive); with CCRF-CEM, 10.1 µM (inactive); in the test with K562, 19.3 µM (inactive); with NCI-H460, 6.34 µM (inactive). Further, the GI50 in the test with UACC-257 was > 100 µM (inactive); with HCT-116 it was 42.3 µM (inactive).
On to `CO[C@]12C[C@H](CNC(=O)c3ccc[nH]3)O[C@H]1NC(=O)N2`, for which the GI50 in the test on Hs-578T, in the test on NCI-H23, with SK-OV-3, in the test with TK-10, in the test on U-251 and in the test with NCI-H226 was > 100 µM (inactive) throughout. Also, the GI50 in the test on HL-60, in the test with BT-549, in the test on NCI-H522, in the test with MCF7, in the test on SK-MEL-5 and in the test on SNB-19 was > 100 µM (inactive) in each case. The GI50 in the test on SF-268, with COLO 205, with RPMI-8226, in the test with CCRF-CEM, in the test with K562 and in the test on NCI-H460 was > 100 µM (inactive) each time. Further, the GI50 in the test with UACC-257 and in the test with HCT-116 was > 100 µM (inactive) throughout.
In the case of `O=C1C(Cl)=C(N2CCN(CCOCCO)CC2)C(=O)c2ncccc21`, the GI50 in the test on Hs-578T, in the test on NCI-H23, with SK-OV-3, in the test on TK-10, with U-251 and in the test on NCI-H226 was > 10 µM (inactive) throughout. For the same compound, the GI50 with HL-60 was 3.35 µM (inactive); in the test with BT-549 it was > 10 µM (inactive); with NCI-H522, 2.56 µM (inactive); with MCF7, > 10 µM (inactive); with SK-MEL-5 it was > 10 µM (inactive); in the test on SNB-19, > 10 µM (inactive). Also, the GI50 in the test with SF-268 is > 10 µM (inactive); in the test with COLO 205, > 10 µM (inactive); with RPMI-8226 it was 7.1 µM (inactive); in the test on CCRF-CEM it was 0.001 µM (active); in the test with K562 it was > 10 µM (inactive); in the test on NCI-H460, > 10 µM (inactive). Further, the GI50 in the test with UACC-257 was > 10 µM (inactive); in the test with HCT-116, 5.07 µM (inactive).
Take `Cc1ccc(S(=O)(=O)NC(=O)Nc2nc[nH]n2)cc1`: the GI50 with Hs-578T, with NCI-H23, with SK-OV-3, in the test with TK-10, in the test with U-251 and in the test with NCI-H226 was > 100 µM (inactive) in each case. Also, the GI50 in the test with HL-60, in the test on BT-549, in the test on NCI-H522, in the test on MCF7, in the test with SK-MEL-5 and with SNB-19 was > 100 µM (inactive) each time. The GI50 with SF-268, with COLO 205, in the test with RPMI-8226, in the test on CCRF-CEM, with K562 and in the test on NCI-H460 was > 100 µM (inactive) each time. The GI50 in the test with UACC-257 and in the test on HCT-116 was > 100 µM (inactive) each time.
In the case of `Cc1c(C)c2c(c(N)c1C#N)C(=O)N(O)C2=O`, the GI50 with Hs-578T, in the test on NCI-H23, in the test on SK-OV-3, in the test with TK-10, with U-251 and with NCI-H226 was > 100 µM (inactive) each time. Besides, the GI50 in the test with HL-60, with BT-549, in the test on NCI-H522, in the test with MCF7, with SK-MEL-5 and in the test with SNB-19 was > 100 µM (inactive) in each case. The GI50 in the test with SF-268, in the test with COLO 205, in the test on RPMI-8226, in the test on CCRF-CEM, with K562 and in the test with NCI-H460 was > 100 µM (inactive) throughout. The GI50 in the test on UACC-257 and in the test on HCT-116 was > 100 µM (inactive) each time.
Consider `Cc1ccc2cccc(-c3cccc4ccccc34)c2n1`, for which the GI50 was 23.5 µM (inactive) with Hs-578T; 32.9 µM (inactive) with NCI-H23; 23.7 µM (inactive) in the test with SK-OV-3; 11.3 µM (inactive) in the test with TK-10; 12.7 µM (inactive) in the test on U-251; 20.5 µM (inactive) with NCI-H226. The GI50 with HL-60 was 3.33 µM (inactive); in the test with BT-549, 30.3 µM (inactive); in the test on NCI-H522, 23.7 µM (inactive); in the test on MCF7 it was > 10 µM (inactive); with SK-MEL-5, 16.1 µM (inactive); with SNB-19, 46.9 µM (inactive). Further, the GI50 in the test on SF-268 was 25.5 µM (inactive); with COLO 205 it was 23.7 µM (inactive); in the test with RPMI-8226, 13.1 µM (inactive); with CCRF-CEM, 19.8 µM (inactive); in the test with K562 it was 4.66 µM (inactive); in the test with NCI-H460 it was 27.5 µM (inactive). Further, the results for the GI50 with UACC-257 and with HCT-116 were 29.9 µM (inactive) and 17.8 µM (inactive), respectively.
As to `CC[C@@]1(OC(=O)C(N)CCCCN)C(=O)OCc2c1cc1n(c2=O)Cc2cc3ccccc3nc2-1` (stereo not given in full), the GI50 in the test with Hs-578T is 4.52 µM (inactive); in the test with NCI-H23 it was 0.0219 µM (active); in the test with SK-OV-3, 0.105 µM (active); in the test with TK-10 it was 2.55 µM (inactive); in the test on U-251 it was 0.0161 µM (active); in the test on NCI-H226, 0.111 µM (active). The GI50 with HL-60 is < 0.0132 µM (active); in the test on BT-549 it was 0.218 µM (active); in the test on NCI-H522, 0.0454 µM (active); with MCF7, 0.021 µM (active); in the test on SK-MEL-5, 0.0377 µM (active); in the test on SNB-19, 0.0176 µM (active). In addition, the GI50 is 0.0169 µM (active) in the test with SF-268; 0.389 µM (active) with COLO 205; 0.0327 µM (active) in the test with RPMI-8226; < 0.01 µM (active) with CCRF-CEM; 0.103 µM (active) in the test with K562; < 0.01 µM (active) in the test on NCI-H460. For the same compound, the GI50 with UACC-257 was 0.143 µM (active); with HCT-116, 0.0415 µM (active).
With `COc1ccc(-c2oc3cc(O)c(OC)c(O)c3c(=O)c2O)cc1` [BETULETOL], the GI50 with Hs-578T is 15.2 µM (inactive); in the test on NCI-H23 it was 5.62 µM (inactive); in the test with SK-OV-3, 6.22 µM (inactive); with TK-10 it was 19.5 µM (inactive); in the test on U-251, 4.47 µM (inactive); in the test on NCI-H226 it was 5.19 µM (inactive). In addition, the GI50 with HL-60 was 2.9 µM (inactive); in the test on BT-549 it was 8.36 µM (inactive); with NCI-H522 it was 10.2 µM (inactive); in the test with MCF7, 4.44 µM (inactive); with SK-MEL-5, 6.14 µM (inactive); with SNB-19, 10.1 µM (inactive). For the same compound, the GI50 with SF-268 is 8.61 µM (inactive); in the test with COLO 205, 23.7 µM (inactive); in the test with RPMI-8226, 6.1 µM (inactive); with CCRF-CEM, 5.16 µM (inactive); in the test on K562, 10.9 µM (inactive); in the test with NCI-H460, 1.74 µM (inactive). Besides, the GI50 in the test with UACC-257 is 54 µM (inactive); in the test on HCT-116, 8.75 µM (inactive).
